Source: US10087188B2, “Benzamide imidazopyrazine Btk inhibitors” (MERCK SHARP & DOHME CORP., priority 2014, dated 2018)
Read-outs that look alike come from different tables or passages of the source.

Experiments:
[1] = biological target: BTK enzyme (recombinant full-length BTK, hBTK) (Homo sapiens (Human), UniProt Q06187); assay: Btk enzyme activity assay, LANCE TR-FRET; type: biochemical; details: 50 pM hBTK, 2 μM biotin-A5-peptide, 25 μM ATP; 60 minute compound & enzyme incubation; read-out: BTK binding IC50
Chain of BTK enzyme (recombinant full-length BTK, hBTK) (Q06187 whole entry): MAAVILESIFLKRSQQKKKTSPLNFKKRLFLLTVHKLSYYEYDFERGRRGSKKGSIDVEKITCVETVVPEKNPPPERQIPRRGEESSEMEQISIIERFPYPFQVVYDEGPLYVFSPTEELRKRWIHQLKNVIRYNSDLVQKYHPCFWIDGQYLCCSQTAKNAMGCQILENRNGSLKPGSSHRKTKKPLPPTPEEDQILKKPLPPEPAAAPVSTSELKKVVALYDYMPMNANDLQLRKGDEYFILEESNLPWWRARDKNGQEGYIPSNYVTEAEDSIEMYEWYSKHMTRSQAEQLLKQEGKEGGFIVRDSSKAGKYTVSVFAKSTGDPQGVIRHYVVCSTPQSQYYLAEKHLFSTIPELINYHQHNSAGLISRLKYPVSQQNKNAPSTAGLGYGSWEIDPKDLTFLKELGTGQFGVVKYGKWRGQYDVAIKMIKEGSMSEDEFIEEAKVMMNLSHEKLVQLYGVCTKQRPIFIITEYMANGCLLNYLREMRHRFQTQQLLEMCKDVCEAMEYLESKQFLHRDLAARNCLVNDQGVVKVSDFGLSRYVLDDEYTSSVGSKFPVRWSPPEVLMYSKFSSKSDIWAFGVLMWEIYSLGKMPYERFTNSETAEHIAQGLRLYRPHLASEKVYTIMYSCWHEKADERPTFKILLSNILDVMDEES
Method: Btk Enzyme Activity Assay Methods
BTK enzymatic activity was determined with the LANCE (Lanthanide Chelate Excite) TR-FRET (Time-resolved fluorescence resonance energy transfer) assay. […] After 60 minutes incubation with detection reagents, reaction plates were read on a PerkinElmer EnVision plate reader using standard TR-FRET protocol.

HeLa cells = assay: [3H] Adenosine uptake assay; type: cell-based; details: accumulation of tritiated adenosine into HeLa cells, compound concentration range 10 μM to 0.032 nM, read-out: ADU inhibition IC50 (adenosine uptake inhibition potency)
Outline: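 HeLa cells in HBSS + 5% FBS preincubated 30 min at ambient temperature with compound (0.25% DMSO), then [3H]adenosine (500 nM stock) added for 60 min. Uptake measured by scintillation proximity counting; IC50 from 4-parameter fit of counts vs log concentration.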

| Structure (SMILES) | IC50 [1] | IC50 (HeLa cells; Homo sapiens, HeLa) | IC50 (HeLa cells) |
| --- | --- | --- | --- |
| CCOc1cc(C(=O)Nc2cc(C(F)(F)F)ccn2)ccc1-c1nc([C@@H]2CC[C@H](C(C)C)[C@H](C(=O)O)C2)n2ccnc(N)c12 [Example 98, (1R,2R,5R)-5-[8-amino-1-(2-ethoxy-4-{[4-(trifluoromethyl)pyridin-2-yl]carbamoyl}phenyl)imidazo[1,5-a]pyrazin-3-yl]-2-(1-methylethyl) cyclohexane-carboxylic acid] | 4 nM | 8770 nM |  |
| COc1cc(C(=O)Nc2cc(C(F)(F)F)ccn2)ccc1-c1nc(C23C4C5C2C2C3C4C52C(=O)O)n2ccnc(N)c12 (centres unmarked) [Example 75, 4-(8-amino-1-(2-methoxy-4-((4-(trifluoromethyl)pyridin-2-yl)carbamoyl)phenyl)imidazo[1,5-a]pyrazin-3-yl)cubane-1-carboxylic acid] | 0.56 nM | 742 nM |  |
| Nc1nccn2c([C@H]3CC[C@@H](CC(=O)O)C3)nc(-c3ccc(C(=O)Nc4cc(C(F)(F)F)ccn4)cc3)c12 [Example 50, {(1R,3S)-3-[8-amino-1-(4-{[4-(trifluoromethyl)pyridin-2-yl]carbamoyl}phenyl)imidazo[1,5-a]pyrazin-3-yl]cyclopentyl}acetic acid] | 0.26 nM | 3700 nM |  |
| Nc1nccn2c(C34CCC(C(=O)O)(CC3)CC4)nc(-c3ccc(C(=O)Nc4cc(C(F)(F)F)ccn4)cc3Cl)c12 [Example 151, 4-[8-amino-1-(2-chloro-4-{[4-(trifluoromethyl)pyridin-2-yl]carbamoyl}phenyl)imidazo[1,5-a]pyrazin-3-yl]bicyclo[2.2.2] octane-1-carboxylic acid] | 0.38 nM | 1490 nM |  |
| CC1(C)[C@H](C(=O)O)CC[C@]1(C)c1nc(-c2ccc(C(=O)Nc3cc(C(F)(F)F)ccn3)cc2)c2c(N)nccn12 [Example 141, (1R,3S)-3-[8-amino-1-(4-{[4-(trifluoromethyl)pyridin-2-yl]carbamoyl}phenyl)imidazo[1,5-a]pyrazin-3-yl]-2,2,3-trimethylcyclopentane carboxylic acid] | 5.2 nM | 2980 nM |  |
| C[C@H]1CO[C@@H](c2nc(-c3ccc(C(=O)Nc4cc(C(F)(F)F)ccn4)cc3)c3c(N)nccn23)CN1[C@H]1CC[C@](C)(C(=O)O)CC1 [Example 191, trans-4-{(2R,5S)-2-[8-amino-1-(4-{[4-(trifluoromethyl)pyridin-2-yl]carbamoyl}phenyl)imidazo [1,5-a]pyrazin-3-yl]-5-methylmorpholin-4-yl}-1-methylcyclohexanecarboxylic acid] | 0.65 nM | 1190 nM |  |
| CCOc1cc(C(=O)Nc2cc(C(F)(F)F)ccn2)ccc1-c1nc([C@@H]2CC[C@@H](C(=O)O)O2)n2ccnc(N)c12 [Example 116, (2S,5S)-5-[8-amino-1-(2-ethoxy-4-{[4-(trifluoromethyl)pyridin-2-yl]carbamoyl}phenyl)imidazo[1,5-a]pyrazin-3-yl]tetrahydrofuran-2-carboxylic acid] | 22 nM |  | 1140 nM |
| C[C@@]1(C(=O)O)CC[C@@](C)(c2nc(-c3ccc(C(=O)Nc4cc(C(F)(F)F)ccn4)cc3)c3c(N)nccn23)C1 [Example 79, (1R,3R)-3-[8-amino-1-(4-{[4-(trifluoromethyl)pyridin-2-yl]carbamoyl}phenyl)imidazo[1,5-a]pyrazin-3-yl]-1,3-dimethylcyclopentane carboxylic acid] | 0.73 nM | 1590 nM |  |
| Nc1nccn2c([C@@H]3CCC[C@H](C(=O)O)C3)nc(-c3ccc(C(=O)Nc4cc(C(F)(F)F)ccn4)cc3F)c12 [Example 10, (1S,3R)-3-[8-amino-1-(2-fluoro-4-{[4-(trifluoromethyl)pyridin-2-yl]carbamoyl}phenyl)imidazo [1,5-a]pyrazin-3-yl]cyclohexane-carboxylic acid] | 0.39 nM | 10000 nM |  |
| C[C@]1(C(=O)O)CC[C@](C)(c2nc(-c3ccc(C(=O)Nc4cc(C(F)(F)F)ccn4)cc3)c3c(N)nccn32)CC1 [Example 30, trans-4-(8-amino-1-(4-((4-(trifluoromethyl)pyridin-2-yl)carbamoyl)phenyl)imidazo[1,5-a]pyrazin-3-yl)-1,4-dimethylcyclohexanecarboxylic acid] | 0.74 nM | 1450 nM |  |
| CCOc1cc(C(=O)Nc2cc(C(F)(F)F)ccn2)c(F)cc1-c1nc([C@@H]2CC[C@](C)(C(=O)O)C2(C)C)n2ccnc(N)c12 [Example 114, (1S,3R)-3-[8-amino-1-(2-ethoxy-5-fluoro-4-{[4-(trifluoromethyl)pyridin-2-yl]carbamoyl}phenyl)imidazo[1,5-a]pyrazin-3-yl]-1,2,2-trimethylcyclopentane carboxylic acid] | 0.92 nM | 2750 nM |  |
| C[C@@]1(C(=O)O)CCC[C@@](C)(c2nc(-c3ccc(C(=O)Nc4cc(C(F)(F)F)ccn4)cc3)c3c(N)nccn23)C1 [Example 137, (1R,3R)-3-[8-amino-1-(4-{[4-(trifluoromethyl)pyridin-2-yl]carbamoyl}phenyl)imidazo[1,5-a]pyrazin-3-yl]-1,3-dimethylcyclohexane-carboxylic acid] | 0.9 nM | 3660 nM |  |
| CCOc1cc(C(=O)Nc2cc(C(F)(F)F)ccn2)ccc1-c1nc([C@]2(C)CC[C@@](C)(C(=O)O)C2)n2ccnc(N)c12 [Example 85, (1R,3R)-3-[8-amino-1-(2-ethoxy-4-{[4-(trifluoromethyl)pyridin-2-yl]carbamoyl}phenyl)imidazo[1,5-a]pyrazin-3-yl]-1,3-dimethylcyclopentane carboxylic acid] | 1.4 nM | 10000 nM |  |
| Nc1nccn2c(-c3ccc(C(=O)O)[nH]3)nc(-c3ccc(C(=O)Nc4cc(C(F)(F)F)ccn4)cc3)c12 [Example 27, 5-[8-amino-1-(4-{[4-(trifluoromethyl)pyridin-2-yl]carbamoyl}phenyl)imidazo[1,5-a]pyrazin-3-yl]-1H-pyrrole-2-carboxylic acid] | 2 nM | 10000 nM |  |
| CC1(C(=O)O)CCC(C)(c2nc(-c3ccc(C(=O)Nc4cc(C(F)(F)F)ccn4)cc3)c3c(N)nccn23)C1 (centres unmarked) [Example 21, 3-(8-amino-1-(4-((4-(trifluoromethyl)pyridin-2-yl)carbamoyl)phenyl)imidazo[1,5-a]pyrazin-3-yl)-1,3-dimethylcyclopentanecarboxylic acid] | 0.27 nM | 1700 nM |  |
| Nc1nccn2c([C@@H]3CC[C@H](CC(=O)O)C3)nc(-c3ccc(C(=O)Nc4cc(C(F)(F)F)ccn4)cc3)c12 [Example 54, {(1S,3R)-3-[8-amino-1-(4-{[4-(trifluoromethyl)pyridin-2-yl]carbamoyl}phenyl)imidazo[1,5-a]pyrazin-3-yl]cyclopentyl}acetic acid] | 0.18 nM | 10000 nM |  |
| C[C@H]1CO[C@@H](c2nc(-c3ccc(C(=O)Nc4cc(C(F)F)ccn4)cc3)c3c(N)ncc(Cl)n23)CN1[C@H]1CC[C@](C)(C(=O)O)CC1 [Example 205, trans-4-{(2R,5S)-2-[8-amino-5-chloro-1-(4-{[4-(difluoromethyl)pyridin-2-yl]carbamoyl}phenyl)imidazo [1,5-a]pyrazin-3-yl]-5-methylmorpholin-4-yl}-1-methylcyclohexanecarboxylic acid] | 1.3 nM | 10000 nM |  |
| C[C@H]1CO[C@@H](c2nc(-c3ccc(C(=O)Nc4cc(C(F)(F)F)ccn4)cc3)c3c(N)nccn23)CN1[C@H]1CC[C@@](C)(C(=O)O)CC1 [Example 192, cis-4-{(2R,5S)-2-[8-amino-1-(4-{[4-(trifluoromethyl)pyridin-2-yl]carbamoyl}phenyl)imidazo [1,5-a]pyrazin-3-yl]-5-methylmorpholin-4-yl}-1-methylcyclohexanecarboxylic acid] | 2.8 nM | 3080 nM |  |
| CC(C)[C@@]1(C(=O)O)CC[C@H](c2nc(-c3ccc(C(=O)Nc4cc(C(F)(F)F)ccn4)cc3)c3c(N)ncc(Cl)n23)C1 [Example 107, (1R,3S)-3-[8-amino-5-chloro-1-(4-{[4-(trifluoromethyl)pyridin-2-yl]carbamoyl}phenyl)imidazo[1,5-a]pyrazin-3-yl]-1-(1-methylethyl) cyclopentane-carboxylic acid] | 3.2 nM | 1390 nM |  |
| CCOc1cc(C(=O)Nc2cc(C(F)(F)F)ccn2)ccc1-c1nc([C@@H]2CCC[C@@](C(=O)O)(C(C)C)C2)n2ccnc(N)c12 [Example 88, (1S,3R)-3-[8-amino-1-(2-ethoxy-4-{[4-(trifluoromethyl)pyridin-2-yl]carbamoyl}phenyl)imidazo[1,5-a]pyrazin-3-yl]-1-(1-methylethyl) cyclohexane-carboxylic acid] | 38.5 nM | 3690 nM |  |
| C[C@@]1(C(=O)O)CC[C@](C)(c2nc(-c3ccc(C(=O)Nc4cc(C(F)(F)F)ccn4)cc3)c3c(N)nccn23)C1 [Example 81, (1R.3S)-3-[8-amino-1-(4-{[4-(trifluoromethyl)pyridin-2-yl]carbamoyl}phenyl)imidazo[1,5-a]pyrazin-3-yl]-1,3-dimethylcyclopentane carboxylic acid] | 8.2 nM | 10000 nM |  |
| CCOc1cc(C(=O)Nc2cc(C(F)(F)F)ccn2)ccc1-c1nc(C2CC3(CC(C(=O)O)C3)C2)n2ccnc(N)c12 (centres unmarked) [Example 93, 6-[8-amino-1-(2-ethoxy-4-{[4-(trifluoromethyl)pyridin-2-yl]carbamoyl}phenyl)imidazo[1,5-a]pyrazin-3-yl]spiro[3.3]heptane-2-carboxylic acid] | 0.51 nM | 4640 nM |  |
